Test results taken from patent US20050009924A1 (priority 2003, published 2005).

What was measured:
human hepatoma G2 cells = test: Cytotoxicity assay (XTT colorimetric), Hep G2; assay type: cell-based; conditions: Homo sapiens, HepG2; 48 h of drug exposure
[1] = tested on: transcriptional activity of hTERT; test: SEAP reporter assay of hTERT expression, PhTERT-SEAP (hTERT-BJ1); assay type: cell-based, human; conditions: Homo sapiens, hTERT-BJ1, read-out: Relative SEAP activity (%)
In short: (§1)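 Drug exposure: varying amounts, 24 h, following 24 h culture at 37° C and fresh medium. Media heat-inactivated (65° C, 10 min) to remove endogenous phosphatases, then combined 1:1 with diethanolamine/MgCl2/homoarginine buffer and 12 mM p-nitrophenyl phosphate; A405 slope recorded.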

CMV promoter = test: SEAP reporter assay of CMV promoter activity, PCMV-SEAP (hTERT-BJ1); assay type: cell-based; conditions: Homo sapiens, read-out: Relative SEAP activity (%)
rat glioma C6 cells = test: Cytotoxicity assay (XTT colorimetric), C6 cells; assay type: cell-based; conditions: Rattus norvegicus, C6; 48 h of drug exposure
[2] = MTT relative viability, PCMV-SEAP (hTERT-BJ1) cells; assay type: cell-based; conditions: human, stable PCMV-SEAP reporter clone
Excerpt: Culture media were changed every 3 days. […] The stable clones were selected using G418.

[3] = tested on: transcriptional activity of hTERT; test: SEAP reporter assay of hTERT expression, PhTERT-SEAP (H1299); assay type: cell-based, human; conditions: Homo sapiens, NCI-H1299, H1299, read-out: Relative SEAP activity (%)
In short: as §1

[4] = tested on: iron-induced lipid peroxidation in rat brain homogenates; test: Iron-induced lipid peroxidation in rat brain homogenates; conditions: for Inhibition of LP(10 mM): mean percent inhibition (Table 3); for LP (%) (10 mM): relative percentage of inhibition (Table 1)
[5] = MTT relative viability, PhTERT-SEAP (H1299) cells; conditions: human
[6] = MTT relative viability, PhTERT-SEAP (hTERT-BJ1) cells; conditions: human

SMILES | melting point [°C] | IC50 (human hepatoma G2 cells) [µM] | IC50 (rat glioma C6 cells) [µM] | LP (%) (10 mM) ([4]; 10 mM) | activity at 2.2 µM [1] [%] | activity at 22 µM [1] [%] | activity at 220 µM [1] [%] | activity at 2.2 µM [3] [%] | activity at 22 µM [3] [%] | activity at 220 µM [3] [%] | viability at 48 h, 2.2 µM [5] [%] | viability at 48 h, 22 µM [5] [%] | viability at 48 h, 220 µM [5] [%] | viability at 48 h, 2.2 µM [6] [%] | viability at 48 h, 22 µM [6] [%] | viability at 48 h, 220 µM [6] [%] | other results
CCC(=O)Oc1cccc2c1C(=O)c1cccc(OC(=O)CC)c1C2=O [IIIa, 1,5-Bis(propionyloxy)-anthraquinone] | 230 to 231 | 4.1 ± 0.5 | 21.1 ± 1.6 | – | – | – | – | – | – | – | – | – | – | – | – | – | activity at 2.8 µM [1]: 131 ± 7%; activity at 28 µM [1]: 152 ± 16.7%; activity at 280 µM [1]: 161 ± 12.2%; activity at 2.8 µM (CMV promoter; 2.8 μM): 101 ± 6%; activity at 28 µM (CMV promoter; 28 μM): 112 ± 6%; activity at 280 µM (CMV promoter; 280 μM): 138 ± 12%; viability at 48 h, 2.8 µM ([2]; 2.8 μM): 114 ± 16%; viability at 48 h, 28 µM ([2]; 28 μM): 110 ± 12%; viability at 48 h, 280 µM ([2]; 280 μM): 94 ± 21%; activity at 2.8 µM [3]: 103 ± 5.8%; activity at 28 µM [3]: 107 ± 4.9%; activity at 280 µM [3]: 97 ± 3.1%; Inhibition of LP(10 mM) ([4]; 10 mM): −100%; viability at 48 h, 2.8 µM [5]: 116 ± 8%; viability at 48 h, 28 µM [5]: 116 ± 7.4%; viability at 48 h, 280 µM [5]: 87 ± 6.6%; viability at 48 h, 2.8 µM [6]: 99 ± 11.9%; viability at 48 h, 28 µM [6]: 109 ± 8.7%; viability at 48 h, 280 µM [6]: 93 ± 10.8%
CC(C)(C)C(=O)Oc1cccc2c1C(=O)c1cccc(OC(=O)C(C)(C)C)c1C2=O [IIId, 1,5-Bis(pivaloyloxy)-anthraquinone] | 166 to 167 | 13.7 ± 1.8 | 12 ± 1.5 | – | – | – | – | – | – | – | – | – | – | – | – | – | activity at 2.4 µM ([1]; 2.4 μM): 147 ± 11.1%; activity at 24 µM ([1]; 24 μM): 165 ± 18.7%; activity at 240 µM ([1]; 240 μM): 141 ± 14.4%; activity at 2.4 µM (CMV promoter; 2.4 μM): 102 ± 10%; activity at 24 µM (CMV promoter; 24 μM): 114 ± 18%; activity at 240 µM (CMV promoter; 240 μM): 141 ± 11%; viability at 48 h, 2.4 µM ([2]; 2.4 μM): 115 ± 7%; viability at 48 h, 24 µM ([2]; 24 μM): 104 ± 8%; viability at 48 h, 240 µM ([2]; 240 μM): 103 ± 11%; activity at 2.4 µM ([3]; 2.4 μM): 105 ± 4.9%; activity at 24 µM ([3]; 24 μM): 78 ± 14.8%; activity at 240 µM ([3]; 240 μM): 80 ± 10.1%; Inhibition of LP(10 mM) ([4]; 10 mM): −23 ± 1.1^ %; viability at 48 h, 2.4 µM [5]: 106 ± 8.9%; viability at 48 h, 24 µM [5]: 97 ± 7.1%; viability at 48 h, 240 µM [5]: 70 ± 5.2%; viability at 48 h, 2.4 µM [6]: 94 ± 3.4%; viability at 48 h, 24 µM [6]: 93 ± 6%; viability at 48 h, 240 µM [6]: 100 ± 9%
CCCSc1cccc2c1C(=O)c1cccc(SCCC)c1C2=O [IIc, 1,5-Bis(propylthio)-anthraquinone] | 232 to 233 | 75.1 ± 2.5 | 29.9 ± 2.1 | 15 ± 1.5 | – | – | – | – | – | – | – | – | – | – | – | – | activity at 2.8 µM [1]: 132 ± 21%; activity at 28 µM [1]: 110 ± 13.2%; activity at 280 µM [1]: 122 ± 14.3%; activity at 2.8 µM [3]: 73 ± 5.4%; activity at 28 µM [3]: 29 ± 2.5%; activity at 280 µM [3]: 17 ± 13.9%; viability at 48 h, 2.8 µM [5]: 96 ± 5.9%; viability at 48 h, 28 µM [5]: 44 ± 2.5%; viability at 48 h, 280 µM [5]: 25 ± 2.4%; viability at 48 h, 2.8 µM [6]: 103 ± 6.3%; viability at 48 h, 28 µM [6]: 97 ± 3%; viability at 48 h, 280 µM [6]: 39 ± 4.9%
O=C1c2cccc(SCCCCCCO)c2C(=O)c2cccc(SCCCCCCO)c21 [IIe, 1,5-Bis(hydroxyhexylthio)-anthraquinone] | 195 to 196 | 49.3 ± 2.1 | 31.7 ± 1.6 | 54 ± 1.9 | – | – | – | – | – | – | – | – | – | – | – | – | activity at 2.1 µM ([1]; 2.1 μM): 140 ± 9.7%; activity at 21 µM ([1]; 21 μM): 128 ± 14.4%; activity at 210 µM ([1]; 210 μM): 75 ± 17.4%; activity at 2.1 µM ([3]; 2.1 μM): 110 ± 6.1%; activity at 21 µM ([3]; 21 μM): 100 ± 5.5%; activity at 210 µM ([3]; 210 μM): 68 ± 5.9%; viability at 48 h, 2.1 µM [5]: 99 ± 6.2%; viability at 48 h, 21 µM [5]: 94 ± 3.9%; viability at 48 h, 210 µM [5]: 36 ± 4.2%; viability at 48 h, 2.1 µM [6]: 99 ± 6.2%; viability at 48 h, 21 µM [6]: 70 ± 2.2%; viability at 48 h, 210 µM [6]: 40 ± 4.7%

Continued, in another order:

melting point [°C] | SMILES | IC50 (human hepatoma G2 cells) [µM] | IC50 (rat glioma C6 cells) [µM] | LP (%) (10 mM) ([4]; 10 mM) | activity at 2.2 µM [1] [%] | activity at 22 µM [1] [%] | activity at 220 µM [1] [%] | activity at 2.2 µM [3] [%] | activity at 22 µM [3] [%] | activity at 220 µM [3] [%] | viability at 48 h, 2.2 µM [5] [%] | viability at 48 h, 22 µM [5] [%] | viability at 48 h, 220 µM [5] [%] | viability at 48 h, 2.2 µM [6] [%] | viability at 48 h, 22 µM [6] [%] | viability at 48 h, 220 µM [6] [%] | other results
283 to 284 | Nc1ccccc1Sc1cccc2c1C(=O)c1cccc(Sc3ccccc3N)c1C2=O [IIf, 1,5-Bis(o-aminophenylthio)-Anthraquinone] | 34 ± 1.7 | 15.1 ± 1.7 | 5 ± 0.5 | 136 ± 17.5 | 141 ± 18.2 | 115 ± 29.7 | 108 ± 12.2 | 96 ± 8.4 | 59 ± 6.6 | 94 ± 3.5 | 50 ± 3.3 | 14 ± 2.5 | 103 ± 7.9 | 107 ± 5.5 | 25 ± 3.3 | activity at 2.2 µM (CMV promoter; 2.2 μM): 103 ± 8%; activity at 22 µM (CMV promoter; 22 μM): 102 ± 10%; activity at 220 µM (CMV promoter; 220 μM): 122 ± 8%; viability at 48 h, 2.2 µM ([2]; 2.2 μM): 108 ± 9%; viability at 48 h, 22 µM ([2]; 22 μM): 109 ± 4%; viability at 48 h, 220 µM ([2]; 220 μM): 48 ± 6%
292 to 293 | Nc1cccc(Sc2cccc3c2C(=O)c2cccc(Sc4cccc(N)c4)c2C3=O)c1 [IIg, 1,5-Bis(m-aminophenylthio)-Anthraquinone] | 21.5 ± 1.2 | 26.3 ± 2.8 | 6 ± 0.9 | 118 ± 9.9 | 41 ± 9.5 | 8 ± 30.6 | 106 ± 7.6 | 109 ± 11.7 | 101 ± 7.3 | 92 ± 3.5 | 68 ± 1.9 | 32 ± 4.9 | 104 ± 5.1 | 9 ± 3.4 | 4 ± 1.5 | –
364 to 365 | Nc1ccc(Sc2cccc3c2C(=O)c2cccc(Sc4ccc(N)cc4)c2C3=O)cc1 [IIh, 1,5-Bis(p-aminophenylthio)-Anthraquinone] | 17.4 ± 1.5 | 0.05 ± 0.01 | 20 ± 1.4 | 97 ± 17.9 | 97 ± 14.5 | 26 ± 12.6 | 100 ± 5.7 | 95 ± 2.6 | 84 ± 5.3 | 103 ± 4.3 | 76 ± 4 | 42 ± 2.3 | 86 ± 11.9 | 65 ± 12.6 | 56 ± 13.8 | –
281 to 282 | O=C1c2cccc(SCc3ccccc3)c2C(=O)c2cccc(SCc3ccccc3)c21 [IIi, 1,5-Bis(benzylthio)-anthraquinone] | 41.5 ± 2.5 | 38.2 ± 4.4 | >100 | 117 ± 11.3 | 112 ± 9.3 | 87 ± 11.1 | 97 ± 6 | 100 ± 7.2 | 100 ± 12.9 | 83 ± 5.5 | 44 ± 0.9 | 34 ± 3.3 | 121 ± 4.7 | 98 ± 4.2 | 47 ± 9.1 | Inhibition (%) ([4]; 0.01 mM): 24 ± 0.8%; Inhibition (%) ([4]; 0.1 mM): 60 ± 2.0%; Inhibition (%) ([4]; 1 mM): 95%; Inhibition (%) ([4]; 10 mM): >100%
209 to 210 | O=C1c2cccc(SCCc3ccccc3)c2C(=O)c2cccc(SCCc3ccccc3)c21 [IIk, 1,5-Bis(phenylethylthio)-anthraquinone] | 36.9 ± 1.5 | 32.9 ± 3.3 | 69 ± 1.5 | 119 ± 12.2 | 109 ± 23.4 | 110 ± 30.6 | 108 ± 0.5 | 102 ± 0.5 | 97 ± 4.8 | 93 ± 6.2 | 51 ± 9.3 | 27 ± 2.9 | 91 ± 3.9 | 54 ± 4.4 | 35 ± 4.1 | –
